{
  "source": "patent US9527859B2",
  "about": "“Amidopyridine derivative and use thereof” (Mitsubishi Tanabe Pharma Corporation, priority 2012, dated 2016)",
  "system": "Salmonella typhimurium TA104 strain",
  "type": "cell-based",
  "protocol": "Genotoxicity Test Using Salmonella typhimurium TA104 Strain Carrying a Reporter Gene Under the Control of DNA Repair Enzyme recN (Vitotox Test)\nTo prepare agents for stock of tester strain, Amp solution (50 mg/mL) and Tet solution (10 mg/mL) were prepared, and then LB-agar plate (35 mg/mL+Amp (100 μg/mL)+Tet ([…])) was prepared, and LB medium (20 mg/mL+Amp (100 μg/mL)+Tet (20 μg/mL)) was prepared. Then, LB medium for pre-incubation (10 mg/mL), LB medium for test (4 mg/mL) and enhancer reagent (50 mg (CaCl2.H2O)/mL) were prepared.\nFreezing stock of bacterial strain was thawed to be streaked on LB-agar plate, and incubated in an incubator (TITEC, BIO-SHAKER BR-15) at 37° C. overnight. […]\nA solution for positive control was prepared as below. […] When the test compound was completely dissolved, the highest concentration as prepared was determined to be a highest dose, and when a precipitate was found, a homogeneous suspension which was able to be pipetted was determined to be a highest dose.\nAfter a fluorescent and luminescent photometer (Thermo Labsystem, Fluoroskan Ascent FL), plate and medium for test were set up, Genox and Cytox reaction solutions were prepared as below. Dilution factor as well as requisite amounts for medium for test, pre-incubation strain solution, Enhancer Reagent and S9 mix were calculated so that OD590 was set as about 0.03 for each culture solution. […]",
  "data": [
    {"compound": "Nc1cnc(N2CCC(O)CC2)c(C2CC2)c1", "note": "[1-(5-amino-3-cyclopropylpyridin-2-yl)piperidin-4-ol]", "values": [
      {"measurement": "Genotoxicity (Vitotox test)", "result": "negative"}
    ]}
  ]
}
